According to the supplement of paper PMC10307832:

Assays:
Assay in all cases: relative viability (nuclei count vs DMSO), 5 days (fraction); higher = more cells survive
[1] = compound: Cn1c(=O)n(-c2ccc(C(C)(C)C#N)cc2)c2c3cc(-c4cnc5ccccc5c4)ccc3ncc21 [Dactolisib] + O=C(CCCCCCC(=O)Nc1ccccc1)NO [Vorinostat] (partner 1 µM)
How it was run: (§1)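 Dosing by pin tool came one day after lung cancer cell lines were seeded in 1536-well plates, using either one drug or a fixed anchor-drug dose plus five library-drug doses (not always all listed) in √10 steps. After 5 days, nuclei were counted on 4× images. Relative viability is treated-well nuclei count divided by vehicle-well nuclei count, and values are medians of duplicate plates.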

[2] = compound: C1CCC(CC1)N(CCNCCC2=C3C(=C(C=C2)O)NC(=O)CO3)C(=O)CCNCCC4=CC(=C(C=C4)Cl)Cl [AZ505] + O=C(c1cc(Cc2n[nH]c(=O)c3ccccc23)ccc1F)N1CCN(C(=O)C2CC2)CC1 [Olaparib] (partner 8 µM)
How it was run: as §1

[3] = compound: C1CCC(CC1)N(CCNCCC2=C3C(=C(C=C2)O)NC(=O)CO3)C(=O)CCNCCC4=CC(=C(C=C4)Cl)Cl [AZ505] + Nc1nc2[nH]cc(CCc3ccc(C(=O)N[C@@H](CCC(=O)O)C(=O)O)cc3)c2c(=O)[nH]1 [Pemetrexed] (partner 0.2 µM)
How it was run: as §1

[4] = compound: Cn1c(=O)n(-c2ccc(C(C)(C)C#N)cc2)c2c3cc(-c4cnc5ccccc5c4)ccc3ncc21 [Dactolisib] + CS(=O)(=O)N1CCN(Cc2cc3nc(-c4cccc5[nH]ncc45)nc(N4CCOCC4)c3s2)CC1 [Pictilisib] (partner 1 µM)
How it was run: as §1

Cell Line	relative viability ([1]; first compound 0.002 µM)	relative viability ([1]; first compound 0.006325 µM)	relative viability ([1]; first compound 0.02 µM)	relative viability ([1]; first compound 0.06325 µM)	relative viability ([1]; first compound 0.2 µM)	relative viability ([2]; first compound 0.08 µM)	relative viability ([2]; first compound 0.253 µM)	relative viability ([2]; first compound 0.8 µM)	relative viability ([2]; first compound 2.53 µM)	relative viability ([2]; first compound 8 µM)	relative viability ([3]; first compound 0.08 µM)	relative viability ([3]; first compound 0.253 µM)	relative viability ([3]; first compound 0.8 µM)	relative viability ([3]; first compound 2.53 µM)	relative viability ([3]; first compound 8 µM)	relative viability ([4]; first compound 0.002 µM)	relative viability ([4]; first compound 0.006325 µM)	relative viability ([4]; first compound 0.02 µM)	relative viability ([4]; first compound 0.06325 µM)	relative viability ([4]; first compound 0.2 µM)
NCI-H520	0.747	0.596	0.416	0.212	0.151	0.288	0.279	0.367	0.302	0.349	0.483	0.684	0.777	0.81	0.875	0.299	0.235	0.234	0.195	0.184
NCI-H596	0.48	0.577	0.521	0.313	0.222	0.743		0.704	0.722	0.598	0.463		0.469	0.564	0.483	0.373	0.348	0.383	0.352	0.299
NCI-H647	0.369	0.308	0.265	0.123	0.0977	0.521	0.739	0.547	0.533	0.706	0.158	0.155	0.195	0.196	0.184	0.448	0.407	0.409	0.227	0.151
NCI-H650	0.414	0.501	0.469	0.306	0.179	0.386	0.462	0.425	0.497	0.356	0.86	0.875	1.01	1.12	0.881	0.86	0.771	0.704	0.558	0.451
NCI-H661	0.773	0.766	0.71	0.455	0.391	0.732	0.751	0.728	0.709	0.727	0.834	0.928	0.865	0.931	0.928	0.468	0.406	0.389	0.377	0.251
NCI-H838	0.746	0.575	0.497	0.36	0.306	0.688	0.765	0.744	0.787	0.776	0.251	0.253	0.252	0.246	0.221	0.351	0.302	0.239	0.204	0.218
NCI-H1355	0.693	0.608	0.558	0.408	0.295	0.719	0.796	0.729	0.734	0.711	0.953	1	1.03	0.996	1	0.505	0.401	0.43	0.32	0.241
